Where two headings read alike, the source gives them in different places.
Key:
Assay type in all cases: physicochemical
[1] = Vacuum thermogravimetric analysis (VTGA): drying and re-exposure to ambient conditions; details: for hygroscopicity in words: concluded from VTGA re-exposure; for time until sample mass decreases to a steady value (drying complete): vacuum 50 mbar, 50° C., wet solid
Description: The wet solid obtained by filtering the crystallization slurry is placed in a cup placed in a cell (i.e., a small chamber) and suspended form a microbalance; vacuum is applied to the cell, and the chamber is subsequently heated. The sample mass is monitored and recorded continuously, indicating when the sample drying is complete and if moisture uptake occurs when the cell is opened to the ambient atmosphere.
1.1149 g of Modification A solid, 0.089 g of distilled water and 10 mL of acetonitrile are added to a glass vial. The mixture is stirred vigorously at 20° C. for 18 hours. The mixture is filtered using vacuum and the wet cake is dried in a VTGA cell at approximately 50° C. and 20 mbar for approximately 5 hours.
1.2137 g of Modification A solids and 15 mL of anhydrous THF, 99.9%, are added to a glass vial. The mixture is heated to 45° C. with vigorous stirring. After slurrying at 45° C. for approximately 19 hours, the sample is filtered by vacuum and the wet cake is dried using the VTGA at approximately 50° C. and 20 mbar for approximately 5 hours.

[2] = Physical stability of the crystalline forms (relative humidity, absorption-desorption isotherm FIG. 1, temperature, storage); details: for physical stability (change into another form): storage / ambient conditions
[3] = Solubility in common process solvents
[4] = Humidity microbalance analysis (VTI), moisture sorption at 25° C.; details: for hygroscopicity / moisture uptake in words: variations in humidity
From the text: Thus, Modification C retains a stable weight from 0% relative humidity to 80% relative humidity while Modification A loses water with decreasing humidity and gains moisture with increasing humidity. With Modification C, a re-hydration step and the possible variability in water content between batches may thus be eliminated.
Modification N is particularly suitable for industrial scale-up. It is a crystalline anhydrous form.
Modification O is particularly suitable for industrial scale-up. It is a crystalline anhydrous form.

[5] = Water loss as a function of temperature by TG/DTA (loss on drying, thermal transitions); details: for Loss On Drying (LOD) (%): total water loss by thermogravimetry, rt-295° C., 10°/min; for LOD (thermal transitions): DTA signals, temperature at which the water is lost
From the text: (ii) Thermogravimetric/Differential Thermal Analysis (TG/DTA) […]
The data listed below show the total water loss (LOD by thermogravimetry (TG)) and thermal transitions (DTA signals) show the temperature at which the water is lost.

[6] = Dynamic vapor absorption experiment; details: dried product of Example 20
Description: 2.0 g of Modification A, 17 mL of THF and 17 mL of 200-proof ethanol are added to a jacketed 100-mL glass reactor equipped with an overhead stirrer. The mixture is heated to approximately 50° C. with vigorous agitation to obtain a clear solution. To the warm solution, 3 mL of heptanes are added. In a small glass vial, 0.02 g of seed particles (Modification C, prepared from a previous batch) are added to 1 mL of heptanes, and the slurry is sonicated for approximately 1 minute. The seed slurry is then added to the warm solution to obtain a turbid solution at 50° C. To the turbid solution, 35 mL of heptanes are added as follows. First, 5 mL of heptanes are added over a 30-min period, followed by 75-min hold. Subsequently, an additional 30 m L of heptanes are added over 1.5 hours. The resulting thick slurry is cooled to 10° C. in 50 minutes. The slurry is filtered by vacuum, and the wet cake is washed with 25 mL of anhydrous THF and dried at 65° C. and 10 mbar. […] Based on Karl Fisher analysis, the dried solid contained 3.6% water.

[7] = Hygroscopicity (statement, no method given)

| time until sample mass decreases to a steady value (drying complete) [1] | relative humidity at which moisture gain starts / becomes significant [4] [% relative humidity] | Mass uptake (% water absorbed) ([4]; 0 % residual humidity) [%] | Mass uptake (% water absorbed) ([4]; 10 % residual humidity) [%] | Mass uptake (% water absorbed) ([4]; 50 % residual humidity) [%] | Mass uptake (% water absorbed) ([4]; 60 % residual humidity) [%] | Mass uptake (% water absorbed) ([4]; 70 % residual humidity) [%] | Mass uptake (% water absorbed) ([4]; 79 % residual humidity) [%] | Mass uptake (% water absorbed) ([4]; 90 % residual humidity) [%] | Mass uptake (% water absorbed) ([4]; 95 % residual humidity) [%] | hygroscopicity / moisture uptake in words [4] | Loss On Drying (LOD) (%) [5] [%] | LOD (thermal transitions) [5] | Compound | physical stability (change into another form) [2] | other results |
| --- | --- | --- | --- | --- | --- | --- | --- | --- | --- | --- | --- | --- | --- | --- | --- |
| less than 1 hours |  | 0.0 | 0.0 | 0.1 | 0.2 | 0.4 | 0.8 | 12.0 | 15.6 | does not lose or gain moisture | 2.8 |  | O=C([O-])C[C@H]1CC[C@H](c2ccc(-c3ccc(Nc4ccc(C(F)(F)F)nc4)cn3)cc2)CC1.[Na+] [Modification C, sodium salt of (4-{4-[5-(6-trifluoromethyl-pyridin-3-ylamino)-pyridin-2-yl]-phenyl}-cyclohexyl)-acetic acid] | does not change into another form under ambient conditions | mass change upon opening the cell to the ambient environment ([1]; Example 17, after drying at 50° C. and 20 mbar, 30%-56% relative humidity): no mass change occurs; mass gain when the dried solid was exposed to air ([1]; Example 18, approximately 15 hours at 20° C. and 43-59% relative humidity): No mass gain was observed; sample mass change upon opening the cell ([1]; after drying, 1000 mbar, ambient temperature): the sample mass does not change; hygroscopicity in words ([1]; listed as Form C): not hygroscopic; temperature above which water is lost ([2]; heating): over 85 °C; hygroscopicity in words [6]: much lower hygroscopicity than Modification A; mass uptake of moisture ([6]; from 0 to 80% relative humidity): 0.3%; relative humidity at which moisture gain starts / becomes significant ([4]; listed as Form C): > 80 % relative humidity; LOD (thermal transitions) ([5]; listed as C): 126 °C; LOD (thermal transitions) ([5]; listed as modification C): 126 °C |
|  |  |  |  |  |  |  |  |  |  |  |  |  | O=C([O-])C[C@H]1CC[C@H](c2ccc(-c3ccc(Nc4ccc(C(F)(F)F)nc4)cn3)cc2)CC1.[Na+] [Modification K, sodium salt of (4-{4-[5-(6-trifluoromethyl-pyridin-3-ylamino)-pyridin-2-yl]-phenyl}-cyclohexyl)-acetic acid] |  | hygroscopicity in words [7]: low hygroscopicity; LOD (thermal transitions) ([5]; listed as K): 134.5 °C; Loss On Drying (LOD) (%) ([5]; listed as K): 2.4% |
|  |  |  |  |  |  |  |  |  |  |  |  |  | O=C([O-])C[C@H]1CC[C@H](c2ccc(-c3ccc(Nc4ccc(C(F)(F)F)nc4)cn3)cc2)CC1.[Na+] [Modification M, sodium salt of (4-{4-[5-(6-trifluoromethyl-pyridin-3-ylamino)-pyridin-2-yl]-phenyl}-cyclohexyl)-acetic acid] |  | relative humidity range in which the form is stable ([2]; absorption-desorption isotherm, FIG. 1): below 10 % relative humidity; LOD (thermal transitions) ([5]; listed as M): None; Loss On Drying (LOD) (%) ([5]; listed as M): 0% |
|  | 70 | 0.0 | 0.1 | 0.7 | 0.9 | 1.0 | 3.7 | 18.2 | 19.1 | low hygroscopicity | 0.3 | None | O=C([O-])C[C@H]1CC[C@H](c2ccc(-c3ccc(Nc4ccc(C(F)(F)F)nc4)cn3)cc2)CC1.[Na+] [Modification N, sodium salt of (4-{4-[5-(6-trifluoromethyl-pyridin-3-ylamino)-pyridin-2-yl]-phenyl}-cyclohexyl)-acetic acid] |  |  |
|  | 80 | 0.0 | 0.0 | −0.5 | −0.5 | −0.5 | −0.4 | 4.3 | 13.3 | low hygroscopicity | 1.2 | None | O=C([O-])C[C@H]1CC[C@H](c2ccc(-c3ccc(Nc4ccc(C(F)(F)F)nc4)cn3)cc2)CC1.[Na+] [Modification O, sodium salt of (4-{4-[5-(6-trifluoromethyl-pyridin-3-ylamino)-pyridin-2-yl]-phenyl}-cyclohexyl)-acetic acid] |  |  |

| Compound | time until sample mass decreases to a steady value (drying complete) [1] | relative humidity at which moisture gain starts / becomes significant [4] [% relative humidity] | Mass uptake (% water absorbed) ([4]; 0 % residual humidity) [%] | Mass uptake (% water absorbed) ([4]; 10 % residual humidity) [%] | Mass uptake (% water absorbed) ([4]; 50 % residual humidity) [%] | Mass uptake (% water absorbed) ([4]; 60 % residual humidity) [%] | Mass uptake (% water absorbed) ([4]; 70 % residual humidity) [%] | Mass uptake (% water absorbed) ([4]; 79 % residual humidity) [%] | Mass uptake (% water absorbed) ([4]; 90 % residual humidity) [%] | Mass uptake (% water absorbed) ([4]; 95 % residual humidity) [%] | hygroscopicity / moisture uptake in words [4] | Loss On Drying (LOD) (%) [5] [%] | LOD (thermal transitions) [5] | physical stability (change into another form) [2] | other results |
| --- | --- | --- | --- | --- | --- | --- | --- | --- | --- | --- | --- | --- | --- | --- | --- |
| O=C([O-])C[C@H]1CC[C@H](c2ccc(-c3ccc(Nc4ccc(C(F)(F)F)nc4)cn3)cc2)CC1.[Na+] [Modification A, sodium salt of (4-{4-[5-(6-trifluoromethyl-pyridin-3-ylamino)-pyridin-2-yl]-phenyl}-cyclohexyl)-acetic acid] | about 18 hours | 10 | 0.0 | 3.9 | 12.0 | 12.0 | 17.3 | 17.5 | 17.4 | 17.1 | takes up much more moisture compared to Modification C | 9.1 |  | converts to another form in samples that have not been refrigerated | total mass gain due to moisture uptake upon opening the cell ([1]; after drying, 1000 mbar, ambient temperature, plateau at ca. 90 hours): 10.4%; hygroscopicity in words [1]: highly hygroscopic; hygroscopicity in words ([2]; sorption profile FIG. 1): very hygroscopic; solubility in common process solvents [3]: relatively low |

From patent US8829194B2, “Crystalline forms of the sodium salt of (4-{4-[5-(6-trifluoromethyl-pyridin-3-ylamino)-pyridin-2-yl]-phenyl}-cyclohexyl)-acetic acid” (Novartis AG, priority 2010, dated 2014)
